± gives the expanded uncertainty stated by the source.
What was measured:
[1] = for viscosity / mass density: 101.33 kPa, Liquid; for viscosity: Falling or rolling sphere viscometry; for mass density: Vibrating tube method
[2] = activity coefficient (dimensionless); of the first substance listed, at infinite dilution; xn = mol fraction of the nth substance listed; conditions: 101 kPa, Liquid, Chromatography, x1 = 0

Row | SMILES | activity coefficient ([2]; 318.15 K) | activity coefficient ([2]; 328.15 K) | activity coefficient ([2]; 338.15 K) | activity coefficient ([2]; 348.15 K) | activity coefficient ([2]; 358.15 K) | activity coefficient ([2]; 368.15 K) | also measured
1 | C[N+]1(CCCO)CCOCC1.O=S(=O)([N-]S(=O)(=O)C(F)(F)F)C(F)(F)F | – | – | – | – | – | – | viscosity ([1]; 298.15 K): 1183 ± 130 mPa·s; mass density ([1]; 298.15 K): 1536.09 ± 4.6 kg/m3; viscosity ([1]; 308.15 K): 565.7 ± 47 mPa·s; mass density ([1]; 308.15 K): 1527.32 ± 4.6 kg/m3; viscosity ([1]; 318.15 K): 280.7 ± 17 mPa·s; mass density ([1]; 318.15 K): 1518.74 ± 4.5 kg/m3; viscosity ([1]; 328.15 K): 156.1 ± 6.8 mPa·s; mass density ([1]; 328.15 K): 1510.14 ± 4.5 kg/m3; viscosity ([1]; 338.15 K): 94.49 ± 3 mPa·s; mass density ([1]; 338.15 K): 1501.59 ± 4.4 kg/m3; viscosity ([1]; 348.15 K): 61.14 ± 1.6 mPa·s; mass density ([1]; 348.15 K): 1493.08 ± 4.4 kg/m3; viscosity ([1]; 358.15 K): 37.79 ± 1 mPa·s; mass density ([1]; 358.15 K): 1484.63 ± 4.3 kg/m3; viscosity ([1]; 368.15 K): 27.09 ± 0.71 mPa·s; mass density ([1]; 368.15 K): 1476.24 ± 4.3 kg/m3; Normal melting temperature ([1]; Crystal, DTA): 14 ± 0.4 °C; Glass transition temperature ([1]; Glass, DTA): -52.5 ± 0.4 °C
2 | C=CCCCCC [1-heptene] + C[N+]1(CCCO)CCOCC1.O=S(=O)([N-]S(=O)(=O)C(F)(F)F)C(F)(F)F | 86.6 ± 5.9 | 75.8 ± 5.2 | 69.3 ± 4.7 | 62.2 ± 4.3 | 55.7 ± 3.8 | 51.1 ± 3.5 | –
3 | c1ccccc1 [benzene] + C[N+]1(CCCO)CCOCC1.O=S(=O)([N-]S(=O)(=O)C(F)(F)F)C(F)(F)F | 2.53 ± 0.17 | 2.56 ± 0.17 | 2.58 ± 0.18 | 2.6 ± 0.18 | 2.63 ± 0.18 | 2.65 ± 0.18 | –
4 | CCc1ccccc1 [ethylbenzene] + C[N+]1(CCCO)CCOCC1.O=S(=O)([N-]S(=O)(=O)C(F)(F)F)C(F)(F)F | 7.33 ± 0.5 | 7.28 ± 0.5 | 7.22 ± 0.49 | 7.18 ± 0.49 | 7.13 ± 0.49 | 7.09 ± 0.48 | –
5 | CCCCCCCCC [nonane] + C[N+]1(CCCO)CCOCC1.O=S(=O)([N-]S(=O)(=O)C(F)(F)F)C(F)(F)F | 445 ± 31 | 385 ± 26 | 332 ± 23 | 287 ± 20 | 249 ± 17 | 224 ± 15 | –
6 | CC1CCCCC1 [methylcyclohexane] + C[N+]1(CCCO)CCOCC1.O=S(=O)([N-]S(=O)(=O)C(F)(F)F)C(F)(F)F | 102 ± 7 | 84.7 ± 5.8 | 73.3 ± 5 | 64.4 ± 4.4 | 55 ± 3.8 | 49.1 ± 3.4 | –
7 | CCOCC [diethyl ether] + C[N+]1(CCCO)CCOCC1.O=S(=O)([N-]S(=O)(=O)C(F)(F)F)C(F)(F)F | 4.94 ± 0.34 | 5 ± 0.34 | 5.05 ± 0.34 | 5.1 ± 0.35 | 5.14 ± 0.35 | 5.19 ± 0.35 | –
8 | CCC(C)CC [3-methylpentane] + C[N+]1(CCCO)CCOCC1.O=S(=O)([N-]S(=O)(=O)C(F)(F)F)C(F)(F)F | 152 ± 10 | – | – | – | – | – | activity coefficient ([2]; 298.15 K): 273 ± 19; activity coefficient ([2]; 308.15 K): 201 ± 14
9 | c1ccncc1 [pyridine] + C[N+]1(CCCO)CCOCC1.O=S(=O)([N-]S(=O)(=O)C(F)(F)F)C(F)(F)F | 0.414 ± 0.034 | 0.461 ± 0.036 | 0.501 ± 0.038 | 0.55 ± 0.04 | 0.593 ± 0.042 | 0.639 ± 0.044 | –
10 | Cc1cccc(C)c1 [1,3-dimethylbenzene] + C[N+]1(CCCO)CCOCC1.O=S(=O)([N-]S(=O)(=O)C(F)(F)F)C(F)(F)F | 6.44 ± 0.44 | 6.55 ± 0.45 | 6.64 ± 0.45 | 6.73 ± 0.46 | 6.85 ± 0.47 | 6.92 ± 0.47 | –
11 | C1CCCC1 [cyclopentane] + C[N+]1(CCCO)CCOCC1.O=S(=O)([N-]S(=O)(=O)C(F)(F)F)C(F)(F)F | 41 ± 2.8 | 34.7 ± 2.4 | 30.6 ± 2.1 | 27.2 ± 1.9 | 23.5 ± 1.6 | 21.4 ± 1.5 | –
12 | Cc1ccc(C)cc1 [1,4-dimethylbenzene] + C[N+]1(CCCO)CCOCC1.O=S(=O)([N-]S(=O)(=O)C(F)(F)F)C(F)(F)F | 6.65 ± 0.45 | 6.7 ± 0.5 | 6.74 ± 0.46 | 6.78 ± 0.46 | 6.79 ± 0.46 | 6.84 ± 0.47 | –
13 | CC(C)CO [2-methyl-1-propanol] + C[N+]1(CCCO)CCOCC1.O=S(=O)([N-]S(=O)(=O)C(F)(F)F)C(F)(F)F | 3.25 ± 0.22 | 3.08 ± 0.21 | 2.94 ± 0.2 | 2.78 ± 0.19 | 2.65 ± 0.18 | 2.54 ± 0.17 | –
14 | C1CCCCCCC1 [cyclooctane] + C[N+]1(CCCO)CCOCC1.O=S(=O)([N-]S(=O)(=O)C(F)(F)F)C(F)(F)F | 110 ± 8 | 93.7 ± 6.4 | 83.6 ± 5.7 | 71.9 ± 4.9 | 64.4 ± 4.4 | 58.6 ± 4 | –
